Measured values reported in the supplement of paper PMC9663587.

How the values were obtained:
Test in all cases: area over the GR curve, 72 h; higher = more effect;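 note: Dye Drop or Deep Dye Drop imaging of viable cells in 384-well plates (Hoechst nuclei, LIVE/DEAD dye), nine half-log doses, GR normalized to DMSO controls and time-zero plates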
[1] = test system: CAL851
[2] = test system: SUM149
[3] = test system: HCC1419
[4] = test system: SUM185PE
[5] = test system: MDAMB436
[6] = test system: HCC1143
[7] = test system: MDAMB453
[8] = test system: MDAMB330
[9] = test system: PDX1328
[10] = test system: BT20
[11] = test system: SUM159

| Structure (SMILES) | area over the GR curve [1] [GR] | area over the GR curve [2] [GR] | area over the GR curve [3] [GR] | area over the GR curve [4] [GR] | area over the GR curve [5] [GR] | area over the GR curve [6] [GR] | area over the GR curve [7] [GR] | area over the GR curve [8] [GR] | area over the GR curve [9] [GR] | area over the GR curve [10] [GR] | area over the GR curve [11] [GR] |
| --- | --- | --- | --- | --- | --- | --- | --- | --- | --- | --- | --- |
| CN1CC[C@H](c2c(O)cc(O)c3c(=O)cc(-c4ccccc4Cl)oc23)[C@H](O)C1 [Flavopiridol] (max 1 µM) | 0.3 | 0.255 | 0.225 | 0.308 | 0.224 | 0.235 | 0.272 | 0.285 | 0.216 | 0.334 | 0.256 |
| CC(C)n1nc(-c2ccc3oc(N)nc3c2)c2c(N)ncnc21 [INK128/MLN0128] (max 3.162 µM) | 0.626 | 0.318 | 0.763 | 0.609 | 0.429 | 0.474 | 0.756 | 1.08 | 0.745 | 0.568 | 0.356 |
| CC(C)NC[C@@H](C(=O)N1CCN(c2ncnc3c2[C@H](C)C[C@H]3O)CC1)c1ccc(Cl)cc1 [Ipatasertib/GDC0068] (max 10 µM) | 0.166 | 0.124 | 0.0911 | 0.155 | 0.104 | 0.0662 | 0.27 | 0.421 | -0.0202 | 0.311 | 0.0758 |
| CN(C)C(=O)c1cc2cnc(Nc3ccc(N4CCNCC4)cn3)nc2n1C1CCCC1 [LEE011/Ribociclib] (max 10 µM) | 0.0857 | 0.188 | 0.293 | 0.101 | -0.012 | 0.27 | 0.555 | 0.824 | 0.406 | 0.433 | 0.244 |
| CCNC(=O)c1noc(-c2cc(C(C)C)c(O)cc2O)c1-c1ccc(CN2CCOCC2)cc1 [Luminespib/NVP-AUY922] (max 1 µM) | 0.75 | 0.754 | 0.641 | 0.673 | 0.633 | 0.693 | 0.848 | 0.887 | 0.751 | 0.559 | 0.53 |
| CCOc1cc2ncc(C#N)c(Nc3ccc(OCc4ccccn4)c(Cl)c3)c2cc1NC(=O)/C=C/CN(C)C [Neratinib/HKI272] (max 3.162 µM) | 0.538 | 0.358 | 0.993 | 0.255 | 0.188 | 0.238 | 0.553 | 1.18 | 0.314 | 0.147 | 0.101 |
| O=C(c1cc(Cc2n[nH]c(=O)c3ccccc23)ccc1F)N1CCN(C(=O)C2CC2)CC1 [Olaparib/AZD2281] (max 10 µM) | 0.135 | 0.184 | 0.018 | -0.0156 | 0.305 | 0.0925 | 0.241 | 0.0605 | 0.0373 | 0.0657 | 0.0296 |
| CC(=O)O[C@H]1C(=O)[C@@]2(C)[C@H]([C@H](OC(=O)c3ccccc3)[C@]3(O)C[C@H](OC(=O)[C@H](O)[C@@H](NC(=O)c4ccccc4)c4ccccc4)C(C)=C1C3(C)C)[C@]1(OC(C)=O)CO[C@@H]1C[C@@H]2O [Paclitaxel] (max 1 µM) | 0.793 | 0.839 | 0.47 | 0.479 | 0.708 | 0.839 | 0.658 | 0.846 | 0.866 | 0.985 | 0.65 |
| CS(=O)(=O)N1CCN(Cc2cc3nc(-c4cccc5[nH]ncc45)nc(N4CCOCC4)c3s2)CC1 [Pictilisib/GDC0941] (max 10 µM) | 0.36 | 0.117 | 0.512 | 0.458 | 0.133 | 0.32 | 0.391 | 0.53 | 0.296 | 0.296 | 0.129 |
| O=C1NC(=NCc2cccs2)SC1=Cc1ccc2ncccc2c1 [R0-3306] (max 10 µM) | 0.159 | 0.106 | -0.0238 | 0.0686 | 0.0623 | 0.262 | 0.102 | 0.0605 | 0.112 | 0.109 | 0.0665 |
| CNCc1ccc(-c2[nH]c3cc(F)cc4c3c2CCNC4=O)cc1 [Rucaparib] (max 10 µM) | 0.203 | 0.2 | 0.0527 | 0.108 | 0.399 | 0.0731 | 0.14 | 0.107 | 0.151 | 0.0785 | 0.0948 |
| CC1(N)CCN(c2cnc(-c3cccc(Cl)c3Cl)c(N)n2)CC1 [SHP099] (max 10 µM) | 0.137 | 0.001 | 0.0437 | 0.176 | -0.0036 | 0.0677 | 0.0286 | 0.121 | 0.0593 | 0.0072 | 0.0503 |
| CN1CCN(CCOc2cc(OC3CCOCC3)c3c(Nc4c(Cl)ccc5c4OCO5)ncnc3c2)CC1 [Saracatinib/AZD0530] (max 10 µM) | 0.184 | 0.132 | 0.264 | 0.279 | 0.0385 | 0.237 | 0.0491 | 0.303 | 0.31 | 0.159 | 0.0365 |
| Cc1cc(C(C)Nc2ccccc2)c2nc(N3CCOCC3)cc(=O)n2c1 (centres undefined) [TGX221] (max 10 µM) | -0.0591 | -0.0254 | -0.0488 | 0.163 | -0.0103 | 0.0331 | -0.0643 | -0.0042 | 0.0318 | -0.0612 | -0.0235 |
| CN(C)C/C=C/C(=O)Nc1ccc(C(=O)Nc2cccc(Nc3ncc(Cl)c(-c4c[nH]c5ccccc45)n3)c2)cc1 [THZ1] (max 1 µM) | 0.639 | 0.425 | 0.369 | 0.484 | 0.196 | 0.487 | 0.553 | 0.86 | 0.483 | 0.108 | 0.161 |
| CN(C)C/C=C/C(=O)Nc1ccc(C(=O)N2CCC[C@@H](Nc3ncc(Cl)c(-c4c[nH]c5ccccc45)n3)C2)cc1 [THZ531] (max 1 µM) | 0.36 | 0.154 | 0.21 | 0.231 | 0.158 | 0.266 | 0.537 | 0.747 | 0.418 | 0.0416 | 0.0413 |
| CN(C)C/C=C/C(=O)Nc1ccc(C(=O)Nc2cccc(Nc3cc(-c4c[nH]c5ccccc45)ncn3)c2)cc1 [THZ-P1-2] (max 10 µM) | 0.217 | 0.117 | 0.019 | 0.14 | 0.272 | 0.216 | 0.533 | 0.592 | 0.0529 | 0.137 | 0.127 |
| Cc1nc(-c2cn3c(n2)-c2ccc(-c4cnn(C(C)(C)C(N)=O)c4)cc2OCC3)n(C(C)C)n1 [Taselisib/GDC0032] (max 10 µM) | 0.55 | 0.205 | 0.852 | 0.879 | 0.173 | 0.476 | 1.01 | 1.15 | 0.576 | 0.736 | 0.399 |
| O=C1NC(=O)[C@@H](c2cn3c4c(cccc24)CCC3)[C@@H]1c1c[nH]c2ccccc12 [Tivantinib/ARQ197] (max 10 µM) | 0.518 | 0.446 | 0.238 | 0.239 | 0.421 | 0.498 | 0.404 | 0.368 | 0.528 | 0.416 | 0.403 |
| Nc1ccc(-c2ccc3ncc4ccc(=O)n(-c5cccc(C(F)(F)F)c5)c4c3c2)cn1 [Torin2] (max 1 µM) | 0.54 | 0.255 | 0.634 | 0.473 | 0.337 | 0.362 | 0.679 | 0.879 | 0.643 | 0.536 | 0.295 |
| CC[C@@H]1C(=O)N(C)c2cnc(Nc3ccc(C(=O)N[C@H]4CC[C@H](N5CCN(CC6CC6)CC5)CC4)cc3OC)nc2N1C(C)C [Volasertib/BI6727] (max 1 µM) | 0.717 | 0.569 | 0.325 | 0.286 | 0.662 | 0.729 | 0.488 | 0.778 | 0.842 | 0.79 | 0.392 |
| O=C(CCCCCCC(=O)Nc1ccccc1)NO [Vorinostat] (max 10 µM) | 0.201 | 0.225 | 0.148 | 0.0835 | 0.163 | 0.294 | 0.263 | 0.271 | 0.36 | 0.151 | 0.148 |
| C=CC(=O)Nc1ccc(C(=O)Nc2[nH]nc3c2CN(C(=O)N[C@H](CN(C)C)c2ccccc2)C3(C)C)cc1 [YKL-5-124] (max 10 µM) | 1.2 | 0.875 | 1.01 | 0.518 | 0.584 | 0.788 | 0.834 | 0.925 | 0.532 | 0.693 | 0.857 |
| CN1CCN(C(=O)c2ccc3cc(CCNc4ncnc5ccc(C#N)cc45)ccc3c2)CC1 [senexin b] (max 10 µM) | 0.226 | 0.129 | 0.13 | 0.293 | 0.0859 | 0.22 | 0.193 | 0.146 | 0.0976 | 0.275 | 0.0855 |
